Measurements as given in patent US10376475B2, “Method of use” (Dermavant Sciences GmbH, priority 2014, dated 2019).
Read-outs that look alike come from different tables or passages of the source.

Key:
[1] = system: IL-17A; assay: IL-17A protein secretion by peripheral blood CD4+ T cells cultured under Th17 polarizing conditions (Magpix); assay type: cell-based; conditions: 5 days of culture, titrating doses
Method: To further understand the active dose range of compound 1-mediated suppression of Th17-associated cytokines, IL-17A protein secretion was examined in peripheral blood CD4+ T cells following 5 days of culture under Th17 polarizing conditions in the presence or absence of titrating doses of Compound 1 (FIG. 2). Supernatants were harvested at the end of the culture period and secreted protein was analyzed by Magpix (magnetic-based Luminex technology).

[2] = system: IL-17A; assay type: cell-based
[3] = system: human immortalized sebocytes; assay: Sebocyte lipogenesis assay (14C-acetate); assay type: cell-based; conditions: 10, 3, 1, 0.3 and 0.1 μM
Method: Briefly, human immortalized sebocytes (tsSV40 and hTERT) were seeded and allowed to grow to confluence in Sebocyte Growth Medium. Upon confluence, cells were transferred to […] to initiate Large T antigen degradation. Two days later, cells were stimulated with Sebocyte Labeling Medium containing 1 μM T0901317 and vehicle (DMSO) or compound 1. […] Next day, the media was replaced with Sebocyte Labeling Medium containing 1 μM T0901317 and original treatments or vehicle plus 1 μM insulin. 2 ul of 14C-acetate was added per well and the plate incubated for 4 hours. After 2 hours of incubation, 10 ul of CTB reagent was added per well for normalization. Incubation was continued for the remaining 2 hours and plates were read at Ex. 560 Em.590 for CTB signal. Cells were then washed, trypsinized and transferred to glass vials for lipid extraction. The results are expressed as % lipid production relative to control (LXR+Insulin group).
FIG. 4, the data represent % inhibition relative to control (LXR+Insulin group). Data are represented as Mean±SEM. Data are from 3 replicates.

[4] = system: primary human keratinocytes; assay: Keratinocyte viability (annexin V / propidium iodide flow cytometry); assay type: cell-based; conditions: 10 and 30 uM, 48 hours
Method: Keratinocyte hyperproliferation increases blockage and can promote comedome formation in acne. […] The ability of Compound 1 to induce apoptosis in primary keratinocytes may contribute to efficacy in acne patients.
Primary human keratinocytes were cultured in EpiLife medium containing HKGS growth supplement and seeded in tissue culture plates at 250,000 cells per plate. On the next day, the culture medium was removed and keratinocytes were then treated with culture medium containing vehicle control (DMSO) or increasing concentrations of Compound 1 (1, 10, 30 uM). After 48 hours of culture, keratinocytes were removed from tissue culture plates and cell viability was assessed by staining for apoptotic markers (annexin V and propidium iodide) using flow cytometry.

[5] = system: P. acnes; assay: MIC against P. acnes on supplemented Brucella blood agar (CLSI); assay type: cell-based, Propionibacterium acnes
Method: Bacterial strains utilized to evaluate this concept of antibacterial synergy were the clinical isolates P. acnes 6601, 6602, AN24, 100372, and reference strain ATCC6919. These were received from the internal culture GSK collection held by the Infectious Disease CEDD at the Upper Providence site. Bacteria inocula were prepared, and the determination of the minimal inhibitory concentration (MIC) were conducted on supplemented Brucella blood agar as described for the CLSI guideline method (Bhate, K. et al. Brit. J. Derm. 168:474-485, 2013). Briefly, diluted antibacterials were added to tempered molten agar and aseptically poured into petri dishes and allowed to solidify. Following 24-hours incubation in an anaerobic environment bacterial colonies were suspended and adjusted for turbidity equivalent to a 0.5 MacFarland standard. One-two microliters of inoculums were placed on each antibiotic containing agar plate and allowed to absorb for 30 min. Plates were then inverted and incubated anaerobically for 48-72 hours before observation for growth. The lowest drug concentration which inhibited bacterial growth was designated as the MIC.

[6] = mouse ear edema; cited from earlier work
[7] = system: primary human cell types; assay: BioMAP Diversity Plus System profile comparison; conditions: 148 phenotypic readouts, at one or more test concentration
[8] = system: IL-17; assay: IL-17 secretion by pre-existing (differentiated) Th17 polarized cells after TCR stimulus

SMILES	IL-17A protein levels [1]	suppression of IL-17 secretion ([2]; 100 nM)	reduction of IL-17 ([2]; 10 μM)	IL-17A mRNA expression ([2]; normalized to PPIB, 5-day culture)	lipogenesis relative to control (LXR+Insulin group) [3]	lipogenesis relative to control (LXR+Insulin group) ([3]; listed as compound 1)	keratinocyte viability / cytotoxicity [4]	MIC ([5]; Cutibacterium acnes, P. acnes reference strain ATCC6919, read-out: MIC)	MIC ([5]; Cutibacterium acnes, all P. acnes strains tested, read-out: MIC)	MIC ([5]; P. acnes strain 6601)	MIC ([5]; P. acnes strain 6602)	MIC ([5]; P. acnes strain 100372)	MIC ([5]; P. acnes strain AN24)	antibacterial activity against P. acnes ([5]; judgement based on MIC results)	skin redness and thickness [6]	number of biomarkers modulated [7]	reduction of IL-17 levels relative to stimulus alone ([8]; 30 μM, 24 hours)	effect on IL-17 ([8]; 30 μM)	effect on IL-17 ([8]; lower concentrations (below 30 μM))
CC(C)c1c(O)cc(/C=C/c2ccccc2)cc1O [Compound 1]	suppressed by compound 1 in a dose-dependent manner	more than 60%	approximately 80%	inhibited IL-17A mRNA expression in parallel and at the same potency as secretion of IL-17 protein	not active	trends towards increased lipogenesis	overtly cytotoxic	128 µg/mL	128 µg/mL	128 µg/mL	128 µg/mL	128 µg/mL	128 µg/mL	would not be considered to be active	dose dependent reduction in both skin redness and thickness	more than 25	80-95%	–	–
Oc1ccc(C=Cc2cc(O)cc(O)c2)cc1 [Resveratrol]	–	–	–	–	–	–	–	–	–	–	–	–	–	–	–	–	–	partial inhibition	enhancement
